Measured values as given in patent US9345723B2, “Rapid formation of chitosan sponges using guanosine 5′-diphosphate: injectable scaffolds for tissue regeneration and drug delivery” (THE ROYAL INSTITUTION FOR THE ADVANCEMENT OF …, priority 2012, dated 2016).

Experiments:
[1] = test system: 3T3 fibroblasts; test: Cytotoxicity of GDP and TPP, MTT assay; format: cell-based; details: concentrations higher than 5 mM, 24 hours of culture
Experimental: FIG. 3 illustrates the comparison of the cytotoxicity of GDP and TPP at different concentrations; FIG. 3A: light microscopy images of 3T3 fibroblasts with different concentrations of GDP and TPP added to the culture media after 24 hours; FIG. 3B: Quantitative analysis, using MTT assay, of the cytotoxicity of TPP and GDP to 3T3 fibroblasts at different concentrations after 24 hours.
Crosslinking of chitosan using GDP occurs due to the electrostatic attractions between the anionic phosphate groups of GDP and the cationic amine groups of chitosan. Another anionic crosslinker used in the art is tripolyphosphate (TPP), which has been widely used to fabricate chitosan nanoparticles, microparticles and fibers (Pati et al., 2011, Carbohyd Res, 346: 2582). The cytotoxicity of GDP was compared to tripolyphosphate (TPP) at concentrations from 0.05 mM to 50 mM using 3T3 fibroblasts.

[2] = test system: 3T3 fibroblasts; details: concentrations higher than 5 mM; recent study (Pati et al., 2012); cited from earlier work

| Structure (SMILES) | cytotoxicity compared to TPP [1] | cytotoxicity [2] |
| --- | --- | --- |
| Nc1nc2c(ncn2[C@@H]2O[C@H](COP(=O)(O)OP(=O)(O)O)[C@@H](O)[C@H]2O)c(=O)[nH]1 [GDP, Guanosine 5′-Diphosphate] | significantly less cytotoxic |  |
| O=P(O)(O)OP(=O)(O)OP(=O)(O)O [TPP, tripolyphosphate] |  | cytotoxicity of TPP at concentrations higher than 5 mM |
